Source: patent publication EP4603105A1, “PHARMACEUTICAL COMPOSITION CONTAINING CYCLIC COMPOUND HAVING SELECTIVE KRAS INHIBITORY EFFECT AGAINST HRAS AND NRAS” (CHUGAI SEIYAKU KABUSHIKI KAISHA, priority 2022, dated 2024)

What was measured:
[1] = biological target: GDP-bound NRAS wild-type protein (Homo sapiens, UniProt P01111); test: Binding to NRAS by surface plasmon resonance (SPR), KD and KD ratio to KRAS; settings: ratio of KD for GDP-bound NRAS wild-type protein to KD for KRAS
Outline: (§1)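 Recombinant RAS proteins bearing a biotinylated Avi tag and loaded with GDP served as the captured ligand, recaptured fresh every cycle. Binding responses were referenced to an uncoated surface and a buffer-only blank cycle. Dissociation constants were obtained by 1:1 model fitting at 30°C.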

HRAS wild-type protein = HRAS wild-type protein (Homo sapiens, UniProt P01112); test: Binding to HRAS by surface plasmon resonance (SPR), KD and KD ratio to KRAS; settings: ratio of KD for HRAS wild-type protein to KD for KRAS
Sequence of HRAS wild-type protein (P01112 whole entry): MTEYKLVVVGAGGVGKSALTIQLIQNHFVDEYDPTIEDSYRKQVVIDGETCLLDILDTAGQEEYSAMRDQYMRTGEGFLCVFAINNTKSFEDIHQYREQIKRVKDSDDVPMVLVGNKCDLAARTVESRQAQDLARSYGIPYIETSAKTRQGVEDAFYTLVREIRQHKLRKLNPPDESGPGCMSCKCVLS
Outline: as §1

[2] = tested on: human lung cancer strain NCI-H441; type: cell-based
Outline: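 Signal came from […] measured per well once the reagent was added. Beforehand, cells were cultured at 37°C and 5% carbon dioxide on a compound series serially diluted in dimethyl sulfoxide.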

Sequence of GDP-bound NRAS wild-type protein (P01111 whole entry): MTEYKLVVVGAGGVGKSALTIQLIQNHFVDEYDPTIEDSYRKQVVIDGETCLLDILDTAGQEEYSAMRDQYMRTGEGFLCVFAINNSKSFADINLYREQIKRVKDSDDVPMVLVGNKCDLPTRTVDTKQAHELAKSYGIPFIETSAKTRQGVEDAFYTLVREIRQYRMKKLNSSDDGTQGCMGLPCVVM

Structure (SMILES)	NRAS /KRAS [1]	HRAS /KRAS (HRAS wild-type protein)	IC50 [2]
CCC[C@H]1C(=O)N[C@@H]([C@@H](C)CC)C(=O)N(C)CC(=O)N(C)[C@H]2C/C=C\CCN(C2=O)[C@@H](Cc2ccc(C)cc2)C(=O)N(C)CC(=O)N[C@@H](CCc2ccc(C(F)(F)F)c(OC)c2)C(=O)N2C[C@H](OCC)C[C@H]2C(=O)NC2(CC(C)(C)C2)C(=O)N(C)[C@@H]([C@@H](C)CC)C(=O)N(C)[C@H](C(=O)N(C)C)CC(=O)N1C [PP3006]	A (a compound having 10 or more and less than 20 is denoted as A)	A (a compound having 10 or more and less than 20 is denoted as A)	14.1 nM
CCC[C@H]1C(=O)N[C@@H]([C@@H](C)CC)C(=O)N(C)CC(=O)N(C)[C@H]2C/C=C\CCN(C2=O)[C@@H](Cc2ccc(C)cc2)C(=O)N(C)CC(=O)N[C@@H](CCc2ccc(C(F)(F)F)c(OC)c2)C(=O)N2CC3(CC3)C[C@H]2C(=O)NC2(CC(C)(C)C2)C(=O)N(C)[C@@H](CC(F)(F)F)C(=O)N(C)[C@H](C(=O)N(C)C)CC(=O)N1C [PP3012]	A (a compound having 10 or more and less than 20 is denoted as A)	A (a compound having 10 or more and less than 20 is denoted as A)	74.8 nM
CCC[C@H]1C(=O)N[C@@H](C2CCCCC2)C(=O)N(C)CC(=O)N(C)[C@H]2C/C=C\CCN(C2=O)[C@@H](Cc2ccc(C(F)(F)F)cc2)C(=O)N(C)CC(=O)N[C@@H](CCc2ccc(C(F)(F)F)c(Cl)c2)C(=O)N2C[C@H](OCC)C[C@H]2C(=O)NC2(CC(C)(C)C2)C(=O)N(C)[C@@H](CC(C)(C)C)C(=O)N(C)[C@H](C(=O)N(C)C)CC(=O)N1C [PP3014]	AA (a compound having 20 or more is denoted as AA)	A (a compound having 10 or more and less than 20 is denoted as A)	20.6 nM
CCC[C@H]1C(=O)N[C@@H](C2CCCCC2)C(=O)N(C)CC(=O)N(C)[C@H]2C/C=C\CCN(C2=O)[C@@H](Cc2ccc(C(F)(F)F)cc2)C(=O)N(C)CC(=O)N[C@@H](CCc2ccc(C(F)(F)F)c(Cl)c2)C(=O)N2C[C@H](OCC)C[C@H]2C(=O)NC2(CC(C)(C)C2)C(=O)N(C)[C@@H]([C@@H](C)CC)C(=O)N(C)[C@H](C(=O)N(C)C)CC(=O)N1C [PP3015]	AA (a compound having 20 or more is denoted as AA)	A (a compound having 10 or more and less than 20 is denoted as A)	103 nM
CCC[C@H]1C(=O)N[C@@H](C2CCCCC2)C(=O)N(C)CC(=O)N(C)[C@H]2C/C=C\CCN(C2=O)[C@@H](Cc2ccc(C(F)(F)F)cc2)C(=O)N(C)CC(=O)N[C@@H](CCc2ccc(C(F)(F)F)c(Cl)c2)C(=O)N2C[C@H](OCC)C[C@H]2C(=O)NC2(CC(C)(C)C2)C(=O)N(C)[C@@H](CC(C)C)C(=O)N(C)[C@H](C(=O)N(C)C)CC(=O)N1C [PP3017]	AA (a compound having 20 or more is denoted as AA)	A (a compound having 10 or more and less than 20 is denoted as A)	46.3 nM
CCC[C@H]1C(=O)N[C@@H](C2CCOCC2)C(=O)N(C)CC(=O)N(C)[C@H]2C/C=C\CCN(C2=O)[C@@H](Cc2ccc(C(F)(F)F)cc2)C(=O)N(C)CC(=O)N[C@@H](CCc2ccc(C(F)(F)F)c(Cl)c2)C(=O)N2C[C@H](OCC)C[C@H]2C(=O)NC2(CC(C)(C)C2)C(=O)N(C)[C@@H](CC(C)(C)C)C(=O)N(C)[C@H](C(=O)N(C)C)CC(=O)N1C [PP3022]	AA (a compound having 20 or more is denoted as AA)	A (a compound having 10 or more and less than 20 is denoted as A)	51.4 nM
CCC(CC)[C@H]1C(=O)N(C)[C@H](C(=O)N(C)C)CC(=O)N(C)[C@@H](COC)C(=O)N[C@@H]([C@@H](C)CC)C(=O)N(C)CC(=O)N(C)[C@H]2C/C=C\CCN(C2=O)[C@@H](Cc2ccc(C(F)(F)F)cc2)C(=O)N(C)CC(=O)N[C@@H](CCc2cc(F)c(C(F)(F)F)c(F)c2)C(=O)N2CCCCC[C@H]2C(=O)NC2(CC(C)(C)C2)C(=O)N1C [PP3030]	AA (a compound having 20 or more is denoted as AA)	A (a compound having 10 or more and less than 20 is denoted as A)	22.4 nM
CCC[C@H]1C(=O)N[C@@H]([C@@H](C)CC)C(=O)N(C)CC(=O)N(C)[C@H]2C/C=C\CCN(C2=O)[C@@H](Cc2ccc(C(F)(F)F)cc2)C(=O)N(C)CC(=O)N[C@@H](CCc2ccc(Cl)c(Cl)c2)C(=O)N2CCCCC[C@H]2C(=O)NC2(CC(C)(C)C2)C(=O)N(C)[C@@H](C(CC)CC)C(=O)N(C)[C@H](C(=O)N(C)C)CC(=O)N1C [PP3031]	AA (a compound having 20 or more is denoted as AA)	A (a compound having 10 or more and less than 20 is denoted as A)	94.2 nM
CCO[C@@H]1C[C@H]2C(=O)NC3(CC(C)(C)C3)C(=O)N(C)[C@@H](C(CC)CC)C(=O)N(C)[C@H](C(=O)N(C)C)CC(=O)N(C)[C@H]3CCCCCCc4ccc(cc4)C[C@@H](C(=O)N(C)CC(=O)N[C@@H](CCc4ccc(C(F)(F)F)c(OC)c4)C(=O)N2C1)N1CC/C=C\C[C@@H](C1=O)N(C)C(=O)CN(C)C(=O)[C@H]([C@@H](C)CC)NC3=O [PP3032]	AA (a compound having 20 or more is denoted as AA)	A (a compound having 10 or more and less than 20 is denoted as A)	2.1 nM
CCO[C@@H]1C[C@H]2C(=O)NC3(CCC3)C(=O)N(C)[C@@H](C3CCCC3)C(=O)N(C)[C@H](C(=O)N3CCCCC3)CC(=O)N(C)[C@H]3CCCCCCc4ccc(cc4)C[C@@H](C(=O)N(C)CC(=O)N[C@@H](CCc4ccc(C(F)(F)F)c(OC)c4)C(=O)N2C1)N1CC/C=C\C[C@@H](C1=O)N(C)C(=O)CN(C)C(=O)[C@H]([C@@H](C)CC)NC3=O [PP3033]	A (a compound having 10 or more and less than 20 is denoted as A)	B (a compound having 3 or more and less than 10 is denoted as B)	4.7 nM
CCO[C@@H]1C[C@H]2C(=O)NC3(CC(C)(C)C3)C(=O)N(C)[C@@H](C3CCCC3)C(=O)N(C)[C@H](C(=O)N3CCCC3)CC(=O)N(C)[C@H]3CCCCCCc4ccc(cc4)C[C@@H](C(=O)N(C)CC(=O)N[C@@H](CCc4ccc(C(F)(F)F)c(OC)c4)C(=O)N2C1)N1CC/C=C\C[C@@H](C1=O)N(C)C(=O)CN(C)C(=O)[C@H]([C@@H](C)CC)NC3=O [PP3034]	A (a compound having 10 or more and less than 20 is denoted as A)	B (a compound having 3 or more and less than 10 is denoted as B)	5.3 nM
CCO[C@@H]1C[C@H]2C(=O)NC3(CC(C)(C)C3)C(=O)N(C)[C@@H](C(CC)CC)C(=O)N(C)[C@H](C(=O)N(C)C)CC(=O)N(C)[C@H]3CCCCCc4ccc(cc4)C[C@@H](C(=O)N(C)CC(=O)N[C@@H](CCc4ccc(C(F)(F)F)c(OC)c4)C(=O)N2C1)N1CC/C=C\C[C@@H](C1=O)N(C)C(=O)CN(C)C(=O)[C@H]([C@@H](C)CC)NC3=O [PP3035]	AA (a compound having 20 or more is denoted as AA)	A (a compound having 10 or more and less than 20 is denoted as A)	4.2 nM
CCO[C@@H]1C[C@H]2C(=O)NC3(CC(C)(C)C3)C(=O)N(C)[C@@H](C3CCCC3)C(=O)N(C)[C@H](C(=O)N3CCCCC3)CC(=O)N(C)[C@H]3CCCCCc4ccc(cc4)C[C@@H](C(=O)N(C)CC(=O)N[C@@H](CCc4ccc(C(F)(F)F)c(OC)c4)C(=O)N2C1)N1CC/C=C\C[C@@H](C1=O)N(C)C(=O)CN(C)C(=O)[C@H]([C@@H](C)CC)NC3=O [PP3036]	A (a compound having 10 or more and less than 20 is denoted as A)	B (a compound having 3 or more and less than 10 is denoted as B)	8 nM
